For 81 molecules, IC50 results are on record in the Kinase Knowledgebase extract (Sharma et al. 2016).

The target in this experiment is PIK3CD (Human) (UniProt O00329). Description: Enzyme Assay.
Sequence of PIK3CD (Human) (O00329 whole entry, looked up): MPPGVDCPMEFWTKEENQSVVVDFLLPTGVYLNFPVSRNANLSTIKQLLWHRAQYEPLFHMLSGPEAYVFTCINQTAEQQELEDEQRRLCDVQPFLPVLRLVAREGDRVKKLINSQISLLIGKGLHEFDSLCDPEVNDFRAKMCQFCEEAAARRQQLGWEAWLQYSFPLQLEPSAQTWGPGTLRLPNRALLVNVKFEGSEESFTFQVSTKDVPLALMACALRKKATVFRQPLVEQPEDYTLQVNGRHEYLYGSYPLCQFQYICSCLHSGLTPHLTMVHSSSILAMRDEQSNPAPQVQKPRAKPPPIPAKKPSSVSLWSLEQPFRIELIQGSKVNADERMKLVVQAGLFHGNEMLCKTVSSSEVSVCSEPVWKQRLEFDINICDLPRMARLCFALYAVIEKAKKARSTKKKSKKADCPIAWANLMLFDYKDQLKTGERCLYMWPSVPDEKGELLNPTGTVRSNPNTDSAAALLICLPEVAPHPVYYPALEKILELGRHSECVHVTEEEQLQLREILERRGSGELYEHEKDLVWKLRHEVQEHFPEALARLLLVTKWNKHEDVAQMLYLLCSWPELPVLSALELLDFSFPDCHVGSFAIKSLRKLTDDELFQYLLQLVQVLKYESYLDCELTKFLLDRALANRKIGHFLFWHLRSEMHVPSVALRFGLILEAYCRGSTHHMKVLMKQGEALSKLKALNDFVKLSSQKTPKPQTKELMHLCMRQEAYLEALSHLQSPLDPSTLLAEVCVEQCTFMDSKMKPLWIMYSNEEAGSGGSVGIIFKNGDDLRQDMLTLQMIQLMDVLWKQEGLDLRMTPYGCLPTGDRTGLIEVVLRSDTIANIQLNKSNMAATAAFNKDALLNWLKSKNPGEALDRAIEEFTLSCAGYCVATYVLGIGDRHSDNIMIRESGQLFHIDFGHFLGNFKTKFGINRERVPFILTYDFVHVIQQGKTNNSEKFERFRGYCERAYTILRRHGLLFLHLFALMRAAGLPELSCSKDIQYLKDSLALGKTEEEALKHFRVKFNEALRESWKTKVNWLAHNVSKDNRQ
For orientation: IC50 means the concentration that gives 50% inhibition. High values mean a need for much substance, low ones inhibition by little substance. `CCn1c(-c2cnc(C)nc2C)nc2c(O[C@H]3CCN(C(=O)C4CC4)C3)ncnc21` displayed a half-maximal inhibitory concentration (IC50) of 44 nM.
To `CCC(=O)N1CC[C@H](Oc2ncnc3c2nc(-c2cnc(C(C)(C)C)s2)n3CC)C1` belongs 2.2 nM.
To `Cc1cc2cccc(-c3nc4c(O[C@H]5CCN(C(=O)OC(C)(C)C)C5)ncnc4n3C)c2[nH]1` belongs 660 nM.
The figure for `CCn1ncc(-c2nc3c(O[C@H]4CCN(Cc5ccc[nH]5)C4)ncnc3n2C)c1C` is 440 nM; for `CCn1ncc(-c2nc3c(O[C@H]4CCN(C(=O)Oc5ccc6ccccc6c5)C4)ncnc3n2C)c1C` it is 110 nM.
`CCn1ncc(-c2nc3c(O[C@H]4CCN(C(=O)Oc5ccccc5)C4)ncnc3n2C)c1C` displayed an IC50 of 90 nM.
The figure for `CCn1c(-c2ccc(OC)c(F)c2)nc2c(O[C@H]3CCN(C(=O)C4CC4)C3)ncnc21` is 2.2 nM.
The figure for `CCC(=O)N1CC[C@H](Oc2ncnc3c2nc(-c2ccc4cn[nH]c4c2)n3C)C1` is 7.2 nM; for `CCn1c(-c2cnc(C)nc2)nc2c(OC3CCC(NC(=O)C4CCOCC4)C3)ncnc21` (stereo unspecified) it is 170 nM.
The figure for `CCC(=O)N1CC[C@H](Oc2ncnc3c2nc(-c2cnn4c2CCC4)n3C)C1` is 23 nM; for `CCn1c(C(=O)NC2CCCCC2)nc2c(O[C@H]3CCN(C(=O)OC(C)(C)C)C3)ncnc21` it is 72 nM; for `CCn1ncc(-c2nc3c(O[C@H]4CCN(C(=O)c5ccnn5C(C)C)C4)ncnc3n2C)c1C` it is 23 nM.
With `CCn1ncc(-c2nc3c(OC4CCN(C(=O)OC(C)(C)C)CC4)ncnc3n2C)c1C`, the IC50 amounted to 610 nM.
The figure for `CCn1c(-c2cnc(C)nc2)nc2c(O[C@H]3CCN(C(=O)N4C5CCC4CC5)C3)ncnc21` is 10 nM; for `CCn1c(-c2ccc(OC(F)F)nc2)nc2c(O[C@@H]3CCN(C(=O)C4CC4)C3)ncnc21` it is 14 nM.
As to `Cn1c(-c2ccc(-n3ccnc3)cc2)nc2c(O[C@H]3CCN(C(=O)OC(C)(C)C)C3)ncnc21`, the IC50 was found to be 330 nM.
To `CCn1c(-c2cnc(C)nc2)nc2c(OC3CN(Cc4ccccc4)CC3(C)C)ncnc21` (stereo unspecified) belongs 28 nM.
For the molecule `CCn1c(-c2cnc(C)nc2)nc2c(O[C@H]3CCN(C(=O)[C@H]4CCC[C@H]4N)C3)ncnc21`, the IC50 was 25 nM.
To `CCn1ncc(-c2nc3c(O[C@H]4CCN(C(=O)c5cc(C(C)(C)C)nn5C)C4)ncnc3n2C)c1C` belongs 150 nM; to `CCn1c(N(C)CCOC)nc2c(O[C@H]3CCN(C(=O)OC(C)(C)C)C3)ncnc21`, 920 nM.
Turning to `CCn1c(-c2ccc(OC)nc2)nc2c(O[C@H]3CCN(C(=O)C4CCOCC4)C3)ncnc21`, the IC50 came to 1.6 nM.
The figure for `CCn1c(-c2cnc(C)nc2)nc2c(O[C@H]3CCN(C(=O)N(C)C4CC4)C3)ncnc21` is 28 nM.
On to `CCn1ncc(-c2nc3c(O[C@H]4CCN(S(=O)(=O)C(F)(F)F)C4)ncnc3n2C)c1C`, for which the IC50 is 1000 nM.
The figure for `CCn1ncc(-c2nc3c(O[C@@H]4CCCN(C(=O)OC(C)(C)C)C4)ncnc3n2C)c1C` is 4600 nM; for `CCn1c(-c2cnc(C)nc2)nc2c(O[C@H]3CCN(C(=O)C4(N)CCC4)C3)ncnc21` it is 50 nM; for `CCn1ncc(-c2nc3c(O[C@H]4CCN(C(=O)OCc5ccccc5)C4)ncnc3n2C)c1C` it is 14 nM.
The figure for `CCn1c(N(C)CCO)nc2c(O[C@H]3CCN(C(=O)OC(C)(C)C)C3)ncnc21` is 830 nM.
As for `CCn1c(-c2cnc(C)nc2)nc2c(O[C@H]3CCN(S(=O)(=O)CC)C3)ncnc21`, the half-maximal inhibitory concentration (IC50) turned out to be 170 nM.
As for `CN(C)c1ccc(-c2nc3c(O[C@H]4CCN(C(=O)OC(C)(C)C)C4)ncnc3n2C)cn1`, the IC50 was 65 nM.
The figure for `CCn1c(-c2ccc(OC(F)(F)F)cc2)nc2c(O[C@H]3CCN(C(=O)C4CC4)C3)ncnc21` is 9.3 nM.
With `CCC(=O)N1CC[C@H](Oc2ncnc3c2nc(CC(C)C)n3C)C1`, the half-inhibitory concentration (IC50) stood at 890 nM.
The figure for `CCn1c(-c2cnc(C)nc2)nc2c(O[C@H]3CCN(c4cncnc4)C3)ncnc21` is 47 nM.
To `CCn1ncc(-c2nc3c(O[C@H]4CCN(c5ncnc6sc(C)c(C)c56)C4)ncnc3n2C)c1C` belongs 19 nM; to `CCn1c(-c2cnc(C)nc2)nc2c(O[C@H]3CCN(c4ccccc4C)C3)ncnc21`, 85 nM; to `CCn1ncc(-c2nc3c(O[C@H]4CCN(C(=O)c5cnoc5C5CC5)C4)ncnc3n2C)c1C`, 79 nM.
To `CCn1ncc(-c2nc3c(O[C@H]4CCN(C(=O)c5cnn6cccnc56)C4)ncnc3n2C)c1C` belongs 11 nM.
`CCn1ncc(-c2nc3c(O[C@H]4CCN(C(=O)c5cc(C)n(C)c5C)C4)ncnc3n2C)c1C` displayed an IC50 of 20 nM.
The molecule `CCn1ncc(-c2nc3c(O[C@H]4CCN(C(=O)c5ncoc5C)C4)ncnc3n2C)c1C` yielded an IC50 of 7.2 nM.
Turning to `CCn1ncc(-c2nc3c(O[C@H]4CCN(C(=O)C5CC(=O)N(C)C5)C4)ncnc3n2C)c1C` (stereo partly specified), the IC50 is 30 nM.
To `CCn1c(-c2cnc(C)nc2)nc2c(OC3CCN(C(=O)N(C)c4ccccc4)CC3)ncnc21` belongs 46 nM; to `CCC(=O)N1CC[C@H](Oc2ncnc3c2nc(-c2cnc(C)nc2)n3C)C1`, 36 nM.
The figure for `CCC(=O)N1CC[C@H](Oc2ncnc3c2nc(-c2ccc(OC)c(C(F)(F)F)c2)n3C)C1` is 2.5 nM.
`CCC(=O)N1CC[C@H](Oc2ncnc3c2nc(C(F)F)n3CC)C1` came in with a 50% inhibitory concentration (IC50) of 100 nM.
To `CCn1ncc(-c2nc3c(O[C@H]4CCN(C(=O)c5cn(C)nc5C(F)(F)F)C4)ncnc3n2C)c1C` belongs 68 nM; to `CCn1ncc(-c2nc3c(O[C@H]4CCN(C(=O)c5coc(C)n5)C4)ncnc3n2C)c1C`, 6.5 nM; to `CCn1ncc(-c2nc3c(O[C@H]4CCN(C(C)c5ccccc5)C4)ncnc3n2C)c1C` (stereo partly specified), 270 nM.
To `CCn1ncc(-c2nc3c(S[C@H]4CCN(C(=O)OCC(C)C)C4)ncnc3n2C)c1C` belongs 30 nM; to `CCn1ncc(-c2nc3c(S[C@H]4CCN(C(=O)OC(C)(C)C)C4)ncnc3n2C)c1C`, 23 nM; to `CCn1ncc(-c2nc3c(O[C@H]4CCN(C(=O)c5ccc(N6CCN(C)CC6)cc5)C4)ncnc3n2C)c1C`, 110 nM.
`CCn1ncc(-c2nc3c(O[C@H]4CCN(C(=O)C5CCOCC5)C4)ncnc3n2CC)c1C`: the 50% inhibitory concentration (IC50) is less than 1 nM.
Molecule `CCn1ncc(-c2nc3c(O[C@H]4CC[C@H](NC(=O)OC(C)(C)C)C4)ncnc3n2C)c1C` gave an IC50 of 140 nM.
To `Cn1c(-c2ccc(N3CCOCC3)nc2)nc2c(O[C@H]3CCN(C(=O)OC(C)(C)C)C3)ncnc21` belongs 4400 nM.
Molecule `CCn1c(-c2cnc(C)nc2)nc2c(O[C@H]3CCCN(c4ccccn4)C3)ncnc21` displayed a concentration for half-maximal inhibition (IC50) of 73 nM.
To `CCn1ncc(-c2nc3c(O[C@H]4CCN(C(=O)C5CCCO5)C4)ncnc3n2C)c1C` (stereo partly specified) belongs 12 nM.
The molecule `CCC(=O)N1CC[C@H](Oc2ncnc3c2nc(-c2cnc(OC)c(F)c2)n3C)C1` returned an IC50 of 9.3 nM.
To `CCn1ncc(-c2nc3c(O[C@H]4CCN(C(=O)c5cc(C)nn5C)C4)ncnc3n2C)c1C` belongs 19 nM; to `CCCn1c(-c2cnn(CC)c2C)nc2c(O[C@H]3CCN(C(=O)CC)C3)ncnc21`, 58 nM.
`CCn1c(-c2cnc(C)nc2)nc2c(O[C@H]3CCN(C(=O)N4CCCCC4)C3)ncnc21`: the IC50 was determined as 21 nM.
To `CCN(C)C(=O)N1CC[C@H](Oc2ncnc3c2nc(-c2cnc(C)nc2)n3CC)C1` belongs 10 nM; to `CCn1c(-c2cnc(C)nc2)nc2c(O[C@@H]3CCN(C(=O)N4CC(F)(F)C4)C3)ncnc21`, 5.9 nM; to `CCC(=O)N1CC[C@H](Oc2ncnc3c2nc(-c2cnn(CC)c2C)n3CC(F)F)C1`, 3.1 nM.
To `CCOC(=O)N1CC[C@H](Oc2ncnc3c2nc(-c2cnc(C)nc2)n3CC)C1` belongs 18 nM; to `CCC(=O)N1CC[C@H](Oc2ncnc3c2nc(Oc2cc(F)cc(OC)c2)n3C)C1`, 110 nM.
On to `CCC(=O)N1CC[C@H](Oc2ncnc3c2nc(-c2cnc(OC)c(C)c2)n3CC)C1`, for which the IC50 was found to be 0.5 nM.
To `CCn1ncc(-c2nc3c(O[C@H]4CCN(C(=O)c5nc(C(C)(C)O)no5)C4)ncnc3n2C)c1C` belongs 110 nM; to `CC[C@@H]1CN(C(=O)OCc2ccccc2)C[C@H]1Oc1ncnc2c1nc(-c1cnc(C)nc1)n2CC.CC[C@H]1CN(C(=O)OCc2ccccc2)C[C@@H]1Oc1ncnc2c1nc(-c1cnc(C)nc1)n2CC`, 90 nM.
For the molecule `CCn1ncc(-c2nc3c(O[C@H]4CCN(C(=O)c5cncn5C)C4)ncnc3n2C)c1C`, the IC50 stood at 5.4 nM.
The figure for `CCn1ncc(-c2nc3c(O[C@H]4CCN(S(=O)(=O)c5cn(C)cn5)C4)ncnc3n2C)c1C` is 1500 nM; for `CCC(=O)N1CC[C@H](Oc2ncnc3c2nc(-c2cnn(-c4ccccc4)c2)n3C)C1` it is 6.5 nM.
The figure for `Cc1ncc(-c2nc3c(O[C@H]4CCN(C(=O)OC(C)(C)C)C4)ncnc3n2C)cn1` is 99 nM; for `CCC(=O)N1CC[C@H](Oc2ncnc3c2nc(-c2ccc(OC)nc2)n3C)C1` it is 10 nM.
With `CCn1c(-c2ccc(OC)cn2)nc2c(O[C@H]3CCN(C(=O)C4CC4)C3)ncnc21`, the IC50 turned out to be 240 nM.
To `CCn1c(-c2cnc(OC)nc2)nc2c(O[C@H]3CCN(C(=O)C4CC4)C3)ncnc21` belongs 6.3 nM; to `CCn1c(-c2cnc(C)nc2)nc2c(O[C@H]3CCN(C(=O)OC(C)(C)C)[C@@H]3C)ncnc21`, 4 nM.
To `CCn1c(N2CCC(S(C)(=O)=O)C2)nc2c(O[C@H]3CCN(C(=O)OC(C)(C)C)C3)ncnc21` (stereo partly specified) belongs 700 nM; to `CCn1ncc(-c2nc3c(O[C@H]4CCN(C(=O)C5CCOCC5)C4)ncnc3n2C)c1C`, 4.3 nM; to `CCn1ncc(-c2nc3c(O[C@H]4CCN(C(=O)OCC(C)C)C4)ncnc3n2C)c1C`, 17 nM.
To `CCn1ncc(-c2nc3c(O[C@H]4CCN(C(=O)c5ccncc5)C4)ncnc3n2C)c1C` belongs 13 nM.
The molecule `CCn1c(-c2cnc(C)nc2)nc2c(O[C@@H]3CN(C(=O)OC(C)(C)C)C[C@H]3O)ncnc21.CCn1c(-c2cnc(C)nc2)nc2c(O[C@H]3CN(C(=O)OC(C)(C)C)C[C@@H]3O)ncnc21` showed an IC50 of 3.7 nM.
In turn, `CCn1c(-c2cnc(C)nc2)nc2c(O[C@H]3CCN(C(=O)N4CC(F)C4)C3)ncnc21` gave an IC50 of 5.1 nM.
Molecule `Cn1c(-c2cnn3cccnc23)nc2c(O[C@H]3CCN(C(=O)OC(C)(C)C)C3)ncnc21` showed an IC50 of 210 nM.
